Here are results for 1 compound from patent publication US20220112445A1 (priority 2019, published 2022).

Assay [1] relates to Bacillus spores. Conditions: cited from earlier work.
Assay [2] relates to Bacillus subtilis subsp. globigii. As to conditions: cited from earlier work.
Assay [3] has as its system Bacillus spores. As for the experimental part:
Other embodiments of the treatment formula were also tested using varying amounts of hydrogen peroxide.

A further assay deals with Bacillus subtilis spores. As to conditions: 20 mg/I hydrogen peroxide for 60 minutes; cited from earlier work.

Read-outs that look alike come from different tables or passages of the source.

Take `OO` [H2O2, hydrogen peroxide]: the concentration exponent entry in the assay on Bacillus spores [1] (25° C., levels of between 10 and 20% (w/v)) is listed as “about 1.5”. Further, the “bactericidal / sporicidal activity” value with Bacillus spores [1] (concentration of 6% (w/vol)) is given as “bactericidal, but only slowly sporicidal”. Further, the “effectiveness against Bacillus subtilis subsp. globigii” value in assay [2] (10% hydrogen peroxide at room temperature) is given as “ineffective”. Further, the “concentration required for the destruction of these spores” value in assay [2] (high temperature (80° C.)) is listed as 35%. The “Spore Survival 5 Minutes” value in the assay with Bacillus spores [3] (0.285 Percent H2O2, 5 minutes after mixing) is on record as “Excellent”; in the assay with Bacillus spores [3] (0.71 Percent H2O2, 5 minutes after mixing), “Excellent”; in the assay with Bacillus spores [3] (1.43 Percent H2O2, 5 minutes after mixing), 0. The “Spore Survival 2 Hours” value with Bacillus spores [3] (0.285 Percent H2O2, 2 hours after mixing) is listed as “Excellent”; in the assay on Bacillus spores [3] (0.71 Percent H2O2, 2 hours after mixing), “Good”; in the assay on Bacillus spores [3] (1.43 Percent H2O2, 2 hours after mixing), 0. The “Spore Survival 4 Hours” value with Bacillus spores [3] (0.285 Percent H2O2, 4 hours after mixing) is “Excellent”; in the assay with Bacillus spores [3] (0.71 Percent H2O2, 4 hours after mixing), “Fair”; in the assay on Bacillus spores [3] (1.43 Percent H2O2, 4 hours after mixing), 0. Also, the “Spore Survival 6 Hours” value was “Excellent” with Bacillus spores [3] (0.285 Percent H2O2, 6 hours after mixing); “Fair” in the assay with Bacillus spores [3] (0.71 Percent H2O2, 6 hours after mixing); 0 in the assay with Bacillus spores [3] (1.43 Percent H2O2, 6 hours after mixing). For the same compound, the “Spore Survival 24 Hours” value in the assay on Bacillus spores [3] (0.285 Percent H2O2, 24 hours after mixing) is reported as “Excellent”; in the assay with Bacillus spores [3] (0.71 Percent H2O2, 24 hours after mixing), “Poor”; with Bacillus spores [3] (1.43 Percent H2O2, 24 hours after mixing), 0. Also, the spore viability result in the assay with Bacillus spores [3] (1.43% hydrogen peroxide level) was “not viable”. Besides, the “kill of Bacillus subtilis spores” value with Bacillus subtilis spores is listed as “no kill”.
